Source: patent US20230312587A1, “PTERIDINONE COMPOUNDS AND USES THEREOF” (Vertex Pharmaceutical Incorporated, priority 2018, published 2023)
Where two headings read alike, the source gives them in different places.

Experiments:
[1] = system: Colo205-TCF/LEF-Luciferase (Luc) tumor; test: In vivo inhibition of TCF/LEF reporter activity in Colo-205 tumors; parameters: concentration or dose not given beside the values; conditions: TCF/LEF luciferase reporter in Colo-205 tumors, nu/nu mice, oral gavage
Protocol: Colo205-TCF/LEF-Luciferase (Luc) tumor cells were expanded in complete DMEM cell culture media [DMEM (Life Technologies, product #11960-051) media supplemented with 10% FBS (Hyclone, catalog #SH30071.03), antimycotic/antibiotic (Life Technologies, product #15240-062), and Glutamax (Life Technologies, product #35050-061)] with 1 ug/ml puromycin. After reaching confluency/high density, the loosely attached cells in media were transferred from the flask to 50 ml conical tubes. Tumor cells adhered to plastic were detached with trypsin and combined with cells in the conical tubes. The tumor cells were triturated, counted, and pelleted by centrifugation. Cell pellets were resuspended in 0.9% injectable saline (6×10^7 cells/ml). A 50 ul volume (3×10^6 cells) was injected subcutaneously in the flanks of 4-6 wk old female nu/nu mice (Charles River Laboratories). Approximately 13-16 days after implantation, tumors between 200-500 mm^3 were selected (based on caliper measurements and applying the formula […]) and randomized into groups of n=4. Mice were dosed by oral gavage with compound dissolved in 1:3:5:1 EtOH:DMSO:PEG-400:H2O at a rate of 10 ml/kg or 1:3:5:1 EtOH:DMSO:PEG-400:H2O alone (Vehicle Control). Tumors were collected from mice euthanized by CO2 inhalation and snap frozen in liquid nitrogen. Tumors were stored in a −80 degrees C. freezer until they were processed.
Tumors were thawed on ice and homogenized in cold Lysis Buffer (20 mM Tris-HCl (pH 7.5), 150 mM NaCl, 1 mM Na2EDTA, 1 mM EGTA, 1% Triton, 2.5 mM sodium pyrophosphate, 1 mM beta-glycerophosphate, 1 mM Na3VO4, 1 μg/ml leupeptin, 0.05% SDS) using a closed tissue grinder system (Fisher Scientific, Cat #02-542-09) on ice according to manufacturer's instructions. For 100 mg of tumor, 500 uL of Lysis Buffer was used. Tumor lysate was transferred to a pre-chilled microcentrifuge tube and centrifuged at 10,000×g for 10 minutes at 4 degrees C. Supernatant was transferred to a new pre-chilled microcentrifuge tube and was used immediately for analysis of protein content and luciferase activity.
Protein content of tumor lysate supernatant was determined using the BCA assay (Life Technologies Cat #23225). Luciferase activity of tumor lysate supernatant was determined by addition of Steady-Glo luminescence reagent (Promega, Cat #E2550) according to manufacturer's instructions and measurement on a Pherastar luminescence plate reader (BMG Labtech). Luciferase activity was normalized to protein content.

[2] = system: β-catenin-TCF-mediated reporter transcription activity in Colo 205 cells; test: Colo 205 reporter assay (TCF/LEF luciferase); type: cell-based; conditions: Colo 205 TCF/LEF luciferase reporter, five hours after addition of compound, read-out: TCF reporter Colo205 IC50
Summary of the method: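 Luciferase signal from a TCF/LEF-driven reporter, stably integrated in Colo 205 colon cancer cells, was measured 5 h after compound addition.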

Colo-205 cells = test: Calcium flux assay (FLIPR Calcium 5); type: cell-based; conditions: Homo sapiens, COLO 205, 0.6 h, FLIPR Calcium 5, measured over 36 minutes
Protocol: Compounds described herein induced ER stress by causing intracellular calcium flux. Calcium flux was measured in Colo-205 cells using the FLTPR® Calcium 5 Assay Kit according to manufacter's protocol (Molecular Devices, Cat. #R8186) on a FLIPR3 system (Molecular Devices). Calcium flux is measured over 36 minutes. The Colo-205 calcium flux assay data are summarized in Table 47: A<0.6 μM; 0.6 μM≤B<2.0 μM; 2.0 μM≤C<10.0 μM; D≥10.0 μM.

[3] = molecular target: HEK293 membranes over-expressing WFS-1 (Homo sapiens (Human), UniProt O76024); test: Radioligand displacement assay (tritiated Compound 136 probe); type: binding; conditions: displacement of tritiated Compound 136
Protocol: Cell pellets were re-suspended in 15 times packed cellular volume in 4° C. hypotonic lysis buffer (10 mM HEPES, pH 7.5 containing 1×Protease inhibitor, 0.5 mM EDTA and 2 mM DTT). Re-suspended cells were homogenized with 6-8 strokes in a dounce homogenizer kept on ice. Lysates were centrifuged at 500×G for 15 minutes at 4° C. without brake to decelerate rotor. Following centrifugation, remove the supernatant to a fresh tube and place on ice (Supernatant 1). Repeat the above steps on the lysed cell pellet using 0.5 the original volume of hypotonic lysis buffer and remove the 500× G supernatant (Supernatant 2) and combine with Supernatant 1. Transfer the combined supernatants to a 45-Ti ultracentrifuge tube and centrifuge at 100,000× G for 30 minutes. Following ultracentrifugation, carefully remove the supernatant and discard. Resuspend the 100,000× G pellet in cold resuspension buffer (10 mM HEPES, pH 7.5, 300 mM NaCl containing 1× Protease inhibitor, 1× EDTA and 2 mM DTT). Centrifuge sample at 500× G for 10 minutes with no brake and remove any cloudy, flocculent material. Resuspend pellet in resuspension buffer to approximately 2 mg/mL of protein concentration for use in radioligand binding assay and immunoblotting.
The binding affinities of compounds were determined by measuring the competitive displacement of a tritiated Compound 136 probe from purified HEK293 membranes over-expressing WFS-1. The data for the radioligand displacement assay are summarized in Table 47: A<0.06 μM; 0.06 μM≤B<0.6 μM; 0.6 μM≤C<3.0 μM; D≥3.0 μM.
The probe Kd was determined by titrating tritiated probe under the standard assay conditions plus and minus excess unlabeled probe and fitting the resulting data to a “One site—Total and nonspecific binding” model in Graphpad Prism, version 6.0, San Diego, CA, US. Initially, 0.25 μl of compound dissolved in DMSO at varying concentrations was dispensed to a 384 well plate. Membrane and probe were both prepared at 2× their final concentration in 1× assay buffer as described above. 25 μL of membrane was added to the wells and incubated for 10 minutes. 25 μL of diluted probe was then added to the wells. The assay was incubated for 90 minutes at room temperature. The entire assay volume was then transferred to Millipore GF/B 384-well plates pretreated with 15 μL 0.5% PEI. The filter plates were washed 3× with 75 μL 25 mM TRIS, ph7.5, 0.1% BSA and then dried overnight. Following addition of 45 μL UltimaGold scintillant, the samples were counted in a Perkin Elmer Topcount. The radioactivity remaining is a measure of bound probe. From the bound probe vs concentration of compound titration curve, the IC50 is determined by fitting the data to a standard 3 parameter IC50 model using either Graphpad Prism, version 6.0, San Diego, CA, US, or using GeneData Analyzer, Basel, Switzerland.

HEK293 membranes over-expressing WFS-1, sequence (O76024 whole entry): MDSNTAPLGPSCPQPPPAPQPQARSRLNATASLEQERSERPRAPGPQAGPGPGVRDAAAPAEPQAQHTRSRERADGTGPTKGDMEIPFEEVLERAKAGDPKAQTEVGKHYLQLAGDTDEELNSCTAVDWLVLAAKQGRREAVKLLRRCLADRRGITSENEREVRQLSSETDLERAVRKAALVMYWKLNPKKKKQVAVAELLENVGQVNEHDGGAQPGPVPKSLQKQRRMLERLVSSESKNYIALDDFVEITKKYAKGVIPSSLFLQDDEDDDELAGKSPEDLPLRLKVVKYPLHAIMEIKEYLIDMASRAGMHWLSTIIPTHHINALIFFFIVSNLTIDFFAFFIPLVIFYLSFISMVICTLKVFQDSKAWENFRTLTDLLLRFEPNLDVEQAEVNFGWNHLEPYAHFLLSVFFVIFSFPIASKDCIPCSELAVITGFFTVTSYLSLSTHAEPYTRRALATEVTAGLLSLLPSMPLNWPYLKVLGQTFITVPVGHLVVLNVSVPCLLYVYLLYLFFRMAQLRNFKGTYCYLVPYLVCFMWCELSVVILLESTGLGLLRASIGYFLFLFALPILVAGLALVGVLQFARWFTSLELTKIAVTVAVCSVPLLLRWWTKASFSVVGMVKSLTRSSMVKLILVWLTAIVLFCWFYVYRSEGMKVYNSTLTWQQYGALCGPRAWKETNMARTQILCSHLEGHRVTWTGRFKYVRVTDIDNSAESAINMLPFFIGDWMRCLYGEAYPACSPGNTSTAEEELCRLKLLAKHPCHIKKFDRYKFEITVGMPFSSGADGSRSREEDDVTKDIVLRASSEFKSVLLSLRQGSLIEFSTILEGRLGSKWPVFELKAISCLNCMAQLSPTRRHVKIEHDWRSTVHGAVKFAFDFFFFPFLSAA

COCC[C@H]1C(=O)Nc2c(C)nc(NCc3cnn(Cc4cc(C(F)(F)F)nn4C)c3)nc2N1C [Compound 678, (S)-7-(2-methoxyethyl)-4,8-dimethyl-2-(((1-((1-methyl-3-(trifluoromethyl)-1H-pyrazol-5-yl)methyl)-1H-pyrazol-4-yl)methyl)amino)-7,8-dihydropteridin-6(5H)-one]
Percent Remaining Activity at 8 hrs after Dosing [1]: 75% | IC50 ([2]; Homo sapiens, COLO 205, 5 h): < 0.3 µM

Cc1nc(NCc2cnn(Cc3ccc(Cl)nc3)c2)nc2c1NC(=O)[C@H](C1CC1)N2C [Compound 434, (7S)-2-(((1-((6-chloropyridin-3-yl)methyl)-1H-pyrazol-4-yl)methyl)amino)-7-cyclopropyl-4,8-dimethyl-7,8-dihydropteridin-6(5H)-one]
Percent Remaining Activity at 8 hrs after Dosing [1]: 26% | IC50 ([2]; Homo sapiens, COLO 205, 5 h): < 0.3 µM

Cc1nc(NCc2cnn(Cc3ccc(C#N)nc3)c2)nc2c1NC(=O)[C@H](C(C)C)N2C [Compound 431, (7S)-5-((4-(((7-isopropyl-4,8-dimethyl-6-oxo-5,6,7,8-tetrahydropteridin-2-yl)amino)methyl)-1H-pyrazol-1-yl)methyl)picolinonitrile]
Percent Remaining Activity at 8 hrs after Dosing [1]: 29% | IC50 ([2]; Homo sapiens, COLO 205, 5 h): < 0.3 µM

Cc1nc(N[C@H]2C[C@@H](Nc3cnc(C(F)(F)F)cn3)C2)nc2c1NC(=O)[C@H](C)N2C [Compound 578, (S)-4,7,8-trimethyl-2-((cis-3-((5-(trifluoromethyl)pyrazin-2-yl)amino)cyclobutyl)amino)-7,8-dihydropteridin-6(5H)-one]
Percent Remaining Activity at 8 hrs after Dosing [1]: 47% | IC50 ([2]; Homo sapiens, COLO 205, 5 h): < 0.3 µM

Cc1nc(N[C@H]2C[C@@H](Nc3cnc(C(F)(F)F)cn3)C2)nc2c1NC(=O)[C@H](C(C)C)N2C [Compound 557, (S)-7-isopropyl-4,8-dimethyl-2-((cis-3-((5-(trifluoromethyl)pyrazin-2-yl)amino)cyclobutyl)amino)-7,8-dihydropteridin-6(5H)-one]
Percent Remaining Activity at 8 hrs after Dosing [1]: 20% | IC50 ([2]; Homo sapiens, COLO 205, 5 h): < 0.3 µM

(S)-7-ethyl-2-(((1-((2-isopropyloxazol-5-yl)methyl)-1H-pyrazol-4-yl)methyl)amino)-4,8-dimethyl-7,8-dihydropteridin-6(5H)-one [Compound 513]
Percent Remaining Activity at 8 hrs after Dosing [1]: 90% | IC50 [2]: < 0.3 µM

Cc1nc(NCc2cnn(Cc3ccc(Cl)nc3)c2)nc2c1N(C)C(=O)[C@H](CCO)N2C [Compound 445, (7S)-2-(((1-((6-chloropyridin-3-yl)methyl)-1H-pyrazol-4-yl)methyl)amino)-7-(2-hydroxyethyl)-4,5,8-trimethyl-7,8-dihydropteridin-6(5H)-one]
Percent Remaining Activity at 8 hrs after Dosing [1]: 98% | IC50 ([2]; Homo sapiens, COLO 205, 5 h): 0.3 to 1 µM

CO[C@H](C)[C@H]1C(=O)Nc2c(C)nc(N[C@H]3C[C@@H](COc4ccc(C(F)(F)F)nc4)C3)nc2N1C [Compound 643, (S)-7-((R)—1-methoxyethyl)-4,8-dimethyl-2-((cis-3-(((6-(trifluoromethyl)pyridin-3-yl)oxy)methyl)cyclobutyl)amino)-7,8-dihydropteridin-6(5H)-one]
EC50 (Colo-205 cells): < 0.6 µM | IC50 [3]: < 0.06 µM | Percent Remaining Activity at 8 hrs after Dosing [1]: 22% | IC50 ([2]; Homo sapiens, COLO 205, 5 h): < 0.3 µM

Cc1nc(NCc2cnn(Cc3ccc(F)nc3)c2)nc2c1NC(=O)[C@H](C(C)(C)C)N2C [Compound 437, (7S)-7-(tert-butyl)-2-(((1-((6-fluoropyridin-3-yl)methyl)-1H-pyrazol-4-yl)methyl)amino)-4,8-dimethyl-7,8-dihydropteridin-6(5H)-one]
Percent Remaining Activity at 8 hrs after Dosing [1]: 20% | IC50 ([2]; Homo sapiens, COLO 205, 5 h): < 0.3 µM

COc1c(F)cc(Cn2cc(CNc3nc(C)c4c(n3)N(C)[C@@H](C(C)C)C(=O)N4)cn2)cc1F [Compound 450, (S)-2-(((1-(3,5-difluoro-4-methoxybenzyl)-1H-pyrazol-4-yl)methyl)amino)-7-isopropyl-4,8-dimethyl-7,8-dihydropteridin-6(5H)-one]
Percent Remaining Activity at 8 hrs after Dosing [1]: 32% | IC50 ([2]; Homo sapiens, COLO 205, 5 h): < 0.3 µM

Cc1nc(NCc2cnn(Cc3ccc(F)cc3C#N)c2)nc2c1N(C)C(=O)[C@H](C)N2C [Compound 63, (7S)-5-fluoro-2-((4-(((4,5,7,8-tetramethyl-6-oxo-5,6,7,8-tetrahydropteridin-2-yl)amino)methyl)-1H-pyrazol-1-yl)methyl)benzonitrile]
Percent Remaining Activity at 8 hrs after Dosing [1]: 9% | IC50 ([2]; Homo sapiens, COLO 205, 5 h): < 0.3 µM

COc1c(F)cc(C(=O)N2CC(Nc3nc(C)c4c(n3)N(C)[C@@H](C(C)C)C(=O)N4)C2)cc1F [Compound 542, (S)-2-((1-(3,5-difluoro-4-methoxybenzoyl)azetidin-3-yl)amino)-7-isopropyl-4,8-dimethyl-7,8-dihydropteridin-6(5H)-one]
Percent Remaining Activity at 8 hrs after Dosing [1]: 22% | IC50 ([2]; Homo sapiens, COLO 205, 5 h): < 0.3 µM

Cc1nc(NCc2cnn(Cc3ccc(C(F)(F)F)o3)c2)nc2c1NC(=O)[C@H](C(C)C)N2C [Compound 518, (S)-7-isopropyl-4,8-dimethyl-2-(((1-((5-(trifluoromethyl)furan-2-yl)methyl)-1H-pyrazol-4-yl)methyl)amino)-7,8-dihydropteridin-6(5H)-one]
Percent Remaining Activity at 8 hrs after Dosing [1]: 21% | IC50 ([2]; Homo sapiens, COLO 205, 5 h): < 0.3 µM

Cc1nc(NCc2cnn([C@H]3C[C@H]3c3ccc(F)cc3)c2)nc2c1NC(=O)[C@H](C)N2C [Compound 155, (7S)-2-(((1-((1S,2S)-2-(4-fluorophenyl)cyclopropyl)-1H-pyrazol-4-yl)methyl)amino)-4,7,8-trimethyl-7,8-dihydropteridin-6(5H)-one]
Percent Remaining Activity at 8 hrs after Dosing [1]: 17% | IC50 ([2]; Homo sapiens, COLO 205, 5 h): < 0.3 µM
